Source: the NIST ThermoML archive (doi:10.1021/je700260f)

Details: 283.14 K, Liquid, Vibrating tube method

FC(C(F)(F)F)C(F)(F)F [1,1,1,2,3,3,3-heptafluoropropane]
Details | mass density [kg/m3]
13521 kPa | 1512.6
13550 kPa | 1512.5
13594 kPa | 1512.8
13629 kPa | 1513
13672 kPa | 1513.2
13707 kPa | 1513.2
13754 kPa | 1513.5
13783 kPa | 1513.6
13814 kPa | 1513.7
13848 kPa | 1513.7
13878 kPa | 1513.9
13913 kPa | 1514.1
13943 kPa | 1514.1
13983 kPa | 1514.3
14013 kPa | 1514.5
14057 kPa | 1514.7
14086 kPa | 1514.9
14121 kPa | 1514.9
14157 kPa | 1515.1
14187 kPa | 1515.1
14217 kPa | 1515.2
14261 kPa | 1515.5
14304 kPa | 1515.6
14343 kPa | 1515.8
14377 kPa | 1515.8
14406 kPa | 1516.1
14435 kPa | 1516.1
14464 kPa | 1516.2
14504 kPa | 1516.4
14534 kPa | 1516.3
14580 kPa | 1516.6
15750 kPa | 1521.1
15778 kPa | 1521.3
15811 kPa | 1521.3
15838 kPa | 1521.3
15867 kPa | 1521.5
15896 kPa | 1521.5
15929 kPa | 1521.8
15966 kPa | 1521.9
15994 kPa | 1521.8
16031 kPa | 1522
16054 kPa | 1522.2
16198 kPa | 1522.7
16235 kPa | 1522.8
16269 kPa | 1522.9
16306 kPa | 1523.1
16339 kPa | 1523.3
16372 kPa | 1523.4
16405 kPa | 1523.5
16433 kPa | 1523.7
16471 kPa | 1523.7
16499 kPa | 1523.9
16541 kPa | 1523.9
16574 kPa | 1524.1
16649 kPa | 1524.3
16739 kPa | 1524.6
16776 kPa | 1524.8
16803 kPa | 1525
16836 kPa | 1525
16864 kPa | 1525.1
16892 kPa | 1525.2
16935 kPa | 1525.3
16967 kPa | 1525.6
17015 kPa | 1525.7
17055 kPa | 1525.8
17079 kPa | 1525.9
17116 kPa | 1526
17145 kPa | 1526.1
17173 kPa | 1526.2
17206 kPa | 1526.4
17248 kPa | 1526.5
17271 kPa | 1526.5
17304 kPa | 1526.7
17332 kPa | 1526.8
17370 kPa | 1527
17413 kPa | 1527.2
17622 kPa | 1527.9
17656 kPa | 1528.1
17691 kPa | 1528.1
17729 kPa | 1528.3
17758 kPa | 1528.4
17786 kPa | 1528.5
17820 kPa | 1528.6
17850 kPa | 1528.6
17893 kPa | 1528.8
17922 kPa | 1529
17961 kPa | 1529
18006 kPa | 1529.3
18060 kPa | 1529.4
18090 kPa | 1529.5
18129 kPa | 1529.6
18164 kPa | 1529.7
18194 kPa | 1529.9
18233 kPa | 1530
18274 kPa | 1530
18312 kPa | 1530.2
18389 kPa | 1530.5
18616 kPa | 1531.3
18645 kPa | 1531.6
18675 kPa | 1531.4
18719 kPa | 1531.7
18754 kPa | 1531.8
18793 kPa | 1531.9
18821 kPa | 1532
18862 kPa | 1532.3
18911 kPa | 1532.4
18933 kPa | 1532.4
18973 kPa | 1532.7
19007 kPa | 1532.6
19042 kPa | 1532.7
19087 kPa | 1533
19118 kPa | 1533.1
19150 kPa | 1533.1
19177 kPa | 1533.3
19213 kPa | 1533.4
19240 kPa | 1533.5
19277 kPa | 1533.6
19309 kPa | 1533.7
19337 kPa | 1533.9
19373 kPa | 1534
19406 kPa | 1534.1
20075 kPa | 1536.4
20104 kPa | 1536.4
20142 kPa | 1536.6
20175 kPa | 1536.7
20372 kPa | 1537.3
20424 kPa | 1537.4
20453 kPa | 1537.6
22509 kPa | 1544.4
22609 kPa | 1544.6
22639 kPa | 1544.7
22675 kPa | 1545
22904 kPa | 1545.6
22939 kPa | 1545.7
23014 kPa | 1546
23096 kPa | 1546.2
23454 kPa | 1547.3
23496 kPa | 1547.4
23531 kPa | 1547.5
23562 kPa | 1547.6
23603 kPa | 1547.8
23638 kPa | 1548
23709 kPa | 1548.1
23828 kPa | 1548.6
23869 kPa | 1548.8
23896 kPa | 1548.7
23944 kPa | 1548.9
23985 kPa | 1548.9
24017 kPa | 1549.2
24350 kPa | 1550.1
24387 kPa | 1550.2
24422 kPa | 1550.4
24459 kPa | 1550.4
24490 kPa | 1550.5
24532 kPa | 1550.8
24572 kPa | 1550.8
25104 kPa | 1552.3
25136 kPa | 1552.5
25173 kPa | 1552.8
25209 kPa | 1552.7
25250 kPa | 1553
25282 kPa | 1552.9
25327 kPa | 1553.2
25365 kPa | 1553.4
25402 kPa | 1553.3
25434 kPa | 1553.5
25476 kPa | 1553.6
25550 kPa | 1553.9
25673 kPa | 1554.3
25766 kPa | 1554.5
25800 kPa | 1554.6
25832 kPa | 1554.7
25913 kPa | 1554.9
26847 kPa | 1557.6
27304 kPa | 1559.1
27346 kPa | 1559.3
27389 kPa | 1559.3
27418 kPa | 1559.4
27466 kPa | 1559.4
27495 kPa | 1559.6
27777 kPa | 1560.4
28197 kPa | 1561.7
28230 kPa | 1561.8
28264 kPa | 1561.8
28306 kPa | 1562.1
28335 kPa | 1562.1
28371 kPa | 1562
28399 kPa | 1562.2
28437 kPa | 1562.3
28909 kPa | 1563.6
28942 kPa | 1563.9
28978 kPa | 1564
29016 kPa | 1564.1
29044 kPa | 1564.1
29121 kPa | 1564.3
29155 kPa | 1564.3
29185 kPa | 1564.4
29223 kPa | 1564.5
29257 kPa | 1564.7
29291 kPa | 1564.7
29319 kPa | 1564.9
29391 kPa | 1565
29500 kPa | 1565.3
29534 kPa | 1565.4
30122 kPa | 1567.2
